Measured values as given in patent US20240373851A1, “PEST CONTROL COMPOSITION AND PEST CONTROL METHOD” (SUMITOMO CHEMICAL COMPANY, LIMITED, priority 2021, published 2024).

Columns and labels:
Assay type in all cases: in vivo
[1] = system: German cockroaches (Blattella germanica); assay: Test Example 5: control test against German cockroaches, spray in chamber; conditions: adult German cockroaches; 1.5 mL sprayed; concentration [%]: nicofluprole 0.01, imiprothrin 0.01, cyfluthrin 0.0002, alone or mixed; 45 minutes after spraying
Description: (§1) Next, the usefulness of the inventive composition for controlling pests will be indicated by Test Examples.
(§2) (hereinafter referred to as expected value A)
(§3) (hereinafter referred to as expected value B)
(§4) In a plastic cup (diameter: 12.4 cm, height: 10.2 cm) lined with a filter paper, ten adult German cockroaches (Blattella germanica) (five males and five females each) or eleven adult German cockroaches were released, and the plastic cup was placed in the center of the bottom of a box-shaped chamber (46 cm×46 cm×70 cm in height). From the height of 60 cm, 1.5 mL of each of formulations prepared by dissolving a single agent of any one of nicofluprole, imiprothrin and cyfluthrin, or a mixed agent of two or more thereof in a mixture of isopropyl alcohol and Isopar M at a mixing ratio of 1:9 was sprayed under a spray pressure of 0.041 MPa. After a lapse of 45 minutes from spraying, the number of dead and moribund individuals was examined, and moribund and mortal rates (%) were determined by the above equation 3. The test was performed through two replicates. Dead individuals are completely immobile individuals, and moribund individuals are individuals who cannot get up when turned on their backs.

[2] = system: German cockroaches (Blattella germanica); assay: Test Example 4: control test against German cockroaches, spray in chamber; conditions: adult German cockroaches; 1.5 mL sprayed; concentration [%]: nicofluprole 0.01, imiprothrin 0.01, deltamethrin 0.0002, alone or mixed; 45 minutes after spraying
Experimental: (§5) Next, the usefulness of the inventive composition for controlling pests will be indicated by Test Examples. In general, the control effect to be expected when treated with a mixture obtained by mixing given two or three types of active ingredient compounds is determined by the Colby's calculation equation represented by the following [Equation 1] and [Equation 2].
(§6) [formula] • P: moribund and mortal rates (%) when treated with an active ingredient compound X in the concentration of m [ppm] • Q: moribund and mortal rates (%) when treated with an active ingredient compound Y in the concentration of n [ppm] • EA: moribund and mortal rates (%) when treated with an active ingredient compound X in the concentration of m [ppm] and an active ingredient compound Y in the concentration of n [ppm] (hereinafter referred to as expected value A) […]
(§7) Regarding the synergistic effect of three types of the active ingredient compounds, in case where the moribund and mortal rates (%) when actually treated with a mixture obtained by mixing three types of the active ingredient compounds exceed the expected value A calculated by using the moribund and mortal rates (%) when actually treated with a mixture obtained by mixing two types of the active ingredient compounds among three types thereof, and the moribund and mortal rates (%) calculated when actually treated the remaining one type of the active ingredient compound, or the expected value B (%) calculated from the moribund and mortal rates (%) when actually treated with each of three types of the active ingredient compounds alone, it was determined that the synergistic effect exists. […]

[3] = system: German cockroaches (Blattella germanica); assay: Test Example 2: control test against German cockroaches, spray in chamber; conditions: adult German cockroaches; 1.5 mL sprayed; concentration [%]: nicofluprole 0.01, imiprothrin 0.01, cypermethrin 0.01, alone or mixed; 120 minutes after spraying
Experimental: as §5, §6, §7

[4] = system: German cockroaches (Blattella germanica); assay: Test Example 8: control test against German cockroaches, spray in chamber; conditions: adult German cockroaches; 1.5 mL sprayed; concentration [%]: nicofluprole 0.01, imiprothrin 0.01, phenothrin 0.1, alone or mixed; 45 minutes after spraying
Experimental: as §5, §6, §7

[5] = system: German cockroaches (Blattella germanica); assay: Test Example 10: control test against German cockroaches, spray in chamber; conditions: adult German cockroaches; 1.5 mL sprayed; concentration [%]: nicofluprole 0.01, imiprothrin 0.01, permethrin 0.05, alone or mixed; 60 minutes after spraying
Experimental: as §5, §6, §7

[6] = system: German cockroaches (Blattella germanica); assay: Test Example 11: control test against German cockroaches, spray in chamber; conditions: adult German cockroaches; 1.5 mL sprayed; concentration [%]: isocycloseram 0.01, imiprothrin 0.01, permethrin 0.05, alone or mixed; 120 minutes after spraying
Experimental: as §5, §6, §7

[7] = system: German cockroaches (Blattella germanica); assay: Test Example 9: control test against German cockroaches, spray in chamber; conditions: adult German cockroaches; 1.5 mL sprayed; concentration [%]: broflanilide 0.02, imiprothrin 0.01, permethrin 0.05, alone or mixed; 420 minutes after spraying
Description: as §1, §2, §3
as §4, with “each)” for “each) or eleven adult German cockroaches”, “broflanilide,” for “nicofluprole,”, “permethrin,” for “cyfluthrin,”, “420” for “45”

[8] = system: German cockroaches (Blattella germanica); assay: Test Example 7: control test against German cockroaches, spray in chamber; conditions: adult German cockroaches; 1.5 mL sprayed; concentration [%]: isocycloseram 0.05, imiprothrin 0.01, cypermethrin 0.01, alone or mixed; 120 minutes after spraying
Experimental: as §5, §6, §7

[9] = system: German cockroaches (Blattella germanica); assay: Test Example 6: control test against German cockroaches, spray in chamber; conditions: adult German cockroaches; 1.5 mL sprayed; concentration [%]: isocycloseram 0.05, imiprothrin 0.01, lambda-cyhalothrin 0.0025, alone or mixed; 60 minutes after spraying
Experimental: as §5, §6, §7

Row | SMILES | Moribund and mortal rates [%] after 45 minutes [1] | Moribund and mortal rates [%] after 45 minutes [2] | Moribund and mortal rates [%] after 120 minutes [3] | Moribund and mortal rates [%] after 45 minutes [4] | Moribund and mortal rates [%] after 60 minutes [5] | Moribund and mortal rates [%] after 120 minutes [6] | Moribund and mortal rates [%] after 420 minutes [7] | Moribund and mortal rates [%] after 120 minutes [8] | Moribund and mortal rates [%] after 60 minutes [9]
1 | CN(C(=O)c1cc(-c2cnn(-c3c(Cl)cc(C(F)(C(F)(F)F)C(F)(F)F)cc3Cl)c2)cnc1Cl)C1CC1 [Nicofluprole, nicofluprole] | 0% | 0% | 0% | 0% | 0% |  |  |  | 
2 | CC1(C)C(C=C(Cl)Cl)C1C(=O)OCc1cccc(Oc2ccccc2)c1 (centres unmarked) [Permethrin, permethrin] |  |  |  |  | 5% | 5% | 5% |  | 
3 | CCN1OCC(NC(=O)c2ccc(C3=NOC(c4cc(Cl)c(F)c(Cl)c4)(C(F)(F)F)C3)cc2C)C1=O (centres unmarked) [Isocycloseram, isocycloseram] |  |  |  |  |  | 5% |  | 10% | 5%
